Assay results: PubChem BioAssay (NCI)
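GI50 marks 50% less growth. TGI is the concentration that stops growth completely.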

Key:
Assay in all cases: inhibition of tumour cell growth, NCI panel, 384-well format
[1] = tested on: CCRF-CEM leukemia
[2] = tested on: NCI-H23 lung
[3] = tested on: UO-31 renal
[4] = tested on: IGROV1 ovarian
[5] = tested on: SF-295 CNS
[6] = tested on: HCC-2998 colon
[7] = tested on: SF-539 CNS
[8] = tested on: SK-MEL-5 melanoma
[9] = tested on: NCI-H460 NSCLC
[10] = tested on: NCI-H322M lung
[11] = tested on: OVCAR-5 ovarian
[12] = tested on: PC-3 prostate
[13] = tested on: HL-60(TB) leukemia
[14] = tested on: MDA-MB-435 melanoma
[15] = tested on: SF-268 CNS
[16] = tested on: TK-10 renal
[17] = tested on: HOP-62 NSCLC
[18] = tested on: MDA-MB-468 breast
[19] = tested on: NCI/ADR-RES ovarian
[20] = tested on: SN12C renal
[21] = tested on: 786-0 renal
[22] = tested on: SK-MEL-28 melanoma
[23] = tested on: RPMI-8226 leukemia
[24] = tested on: MDA-MB-231 breast
[25] = tested on: RXF 393 renal
[26] = tested on: MCF7 breast
[27] = tested on: HCT-15 colon
[28] = tested on: OVCAR-3 ovarian
[29] = tested on: ACHN renal
[30] = tested on: A498 renal
[31] = tested on: HT29 colon
[32] = tested on: SW-620 colon
[33] = tested on: SK-OV-3 ovarian
[34] = tested on: KM12 colon
[35] = tested on: M14 melanoma
[36] = tested on: NCI-H522 lung
[37] = tested on: U251 glioblastoma
[38] = tested on: MOLT-4 leukemia
[39] = tested on: DU-145 prostate
[40] = tested on: UACC-62 melanoma
[41] = tested on: SR leukemia
[42] = tested on: MALME-3M melanoma
[43] = tested on: COLO 205 colon
[44] = tested on: K-562 leukemia
[45] = tested on: CAKI-1 renal
[46] = tested on: BT-549 breast
[47] = tested on: SNB-19 CNS
[48] = tested on: T-47D breast
[49] = tested on: A549 NSCLC
[50] = tested on: LOX IMVI melanoma
[51] = tested on: SK-MEL-2 melanoma
[52] = tested on: HCT-116 colon
[53] = tested on: NCI-H226 lung
[54] = tested on: UACC-257 melanoma

COc1cc2nccc(Oc3ccc(NC(=O)c4cn(C(C)C)c(=O)n(-c5ccc(F)cc5)c4=O)cc3F)c2cc1OC
GI50 [1]: > 100 µM | TGI [1]: > 100 µM | GI50 [2]: 0.0469 µM | TGI [2]: > 100 µM | GI50 [3]: 0.246 µM | TGI [3]: 0.65 µM | GI50 [4]: 5.5 µM | TGI [4]: > 100 µM | GI50 [5]: 0.271 µM | TGI [5]: > 100 µM | GI50 [6]: > 100 µM | TGI [6]: > 100 µM | GI50 [7]: 1.3 µM | TGI [7]: 2.85 µM | GI50 [8]: 4.94 µM | TGI [8]: > 100 µM | GI50 [9]: 4.01 µM | TGI [9]: > 100 µM | GI50 [10]: > 100 µM | TGI [10]: > 100 µM | GI50 [11]: > 100 µM | TGI [11]: > 100 µM | GI50 [12]: 18.4 µM | TGI [12]: > 100 µM | GI50 [13]: 2.6 µM | TGI [13]: > 100 µM | GI50 [14]: > 100 µM | TGI [14]: > 100 µM | GI50 [15]: 3.37 µM | TGI [15]: > 100 µM | GI50 [16]: 96.6 µM | TGI [16]: > 100 µM | GI50 [17]: 15 µM | TGI [17]: > 100 µM | GI50 [18]: 6.91 µM | TGI [18]: > 100 µM | GI50 [19]: > 100 µM | TGI [19]: > 100 µM | GI50 [20]: 0.642 µM | TGI [20]: > 100 µM | GI50 [21]: 18.9 µM | TGI [21]: > 100 µM | GI50 [22]: 2.97 µM | TGI [22]: > 100 µM | GI50 [23]: 3.95 µM | TGI [23]: > 100 µM | GI50 [24]: 3.06 µM | TGI [24]: > 100 µM | GI50 [25]: 0.63 µM | TGI [25]: 4.89 µM | GI50 [26]: 7.28 µM | TGI [26]: > 100 µM | GI50 [27]: > 100 µM | TGI [27]: > 100 µM | GI50 [28]: > 100 µM | TGI [28]: > 100 µM | GI50 [29]: 1.75 µM | TGI [29]: 5.13 µM | GI50 [30]: 3.41 µM | TGI [30]: > 100 µM | GI50 [31]: 7.99 µM | TGI [31]: > 100 µM | GI50 [32]: 9.13 µM | TGI [32]: > 100 µM | GI50 [33]: 5.58 µM | TGI [33]: > 100 µM | GI50 [34]: 0.0315 µM | TGI [34]: > 100 µM | GI50 [35]: 82.6 µM | TGI [35]: > 100 µM | GI50 [36]: 1.65 µM | TGI [36]: 5.66 µM | GI50 [37]: > 100 µM | TGI [37]: > 100 µM | GI50 [38]: 0.407 µM | TGI [38]: 4.2 µM | GI50 [39]: > 100 µM | TGI [39]: > 100 µM | GI50 [40]: 4.5 µM | TGI [40]: > 100 µM | GI50 [41]: 2.69 µM | TGI [41]: 20.6 µM | GI50 [42]: 2.85 µM | TGI [42]: > 100 µM | GI50 [43]: > 100 µM | TGI [43]: > 100 µM | GI50 [44]: 0.0235 µM | TGI [44]: 0.137 µM | GI50 [45]: 1.46 µM | TGI [45]: 2.81 µM | GI50 [46]: 5.27 µM | TGI [46]: > 100 µM | GI50 [47]: > 100 µM | TGI [47]: > 100 µM | GI50 [48]: 1.5 µM | TGI [48]: 6.25 µM | GI50 [49]: 4.67 µM | TGI [49]: > 100 µM | GI50 [50]: > 100 µM | TGI [50]: > 100 µM | GI50 [51]: 2.29 µM | TGI [51]: 9.87 µM | GI50 [52]: 5.93 µM | TGI [52]: > 100 µM | GI50 [53]: 3.81 µM | TGI [53]: 61.4 µM | GI50 [54]: 2.33 µM | TGI [54]: 8.74 µM
